Measured values from article PMC3602187, “From Design to Screening: A New Antimicrobial Peptide Discovery Pipeline” (PLoS ONE, 2013).
In brackets after ≈: the same amount, converted by molar mass. Where a SMILES comes first, the peptide text is derived from it.

Experiments:
Listeria innocua 33090 [1] = experiment: colony overlay assay of peptide-secreting E. coli clones (library screening and re-test); type: cell-based; set-up: key: higher activity group (H); equal activity group (E); lower activity group (L); conditions: library screening; selected colonies pooled by zone size; peptides identified by 454 sequencing, full-length sequences with minimum 20 reads
Summary of the method: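 Pln-423 mutant library expressed periplasmically in leaky E. coli JE5505 (pFLAG-CTS); colonies grown 24 h at 37°C, then overlaid with TSB soft agar containing 1 mM IPTG and L. innocua ATCC 33090 (OD600 = 0.03) and incubated overnight at 30°C. Activity scored by inhibition-zone size versus wild-type Pln-423; hits re-tested after 4 h regrowth.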

Listeria innocua 33090 [2] = experiment: MIC determination / agar spot assay of synthetic peptides; type: cell-based
Protocol: Synthetic samples of wild-type Pln-423, two variants Pln-S23E and Pln-H28R/H34E from this study (Pln-4 and Pln-7 on Fig. 2), and another high-activity variant Pln-S27D/K36N (discovered during a pilot study, data not shown) were tested on agar plates at varying concentrations.
MICs were determined as previously described, [35]. Synthetic peptides were obtained from Peptide 2.0, Inc. (Chantilly, VA) and dissolved in 0.1% acetic acid/water solution at the final concentration of 2.5 mg/ml. Listeria innocua 33090 was grown in TSB until the turbidity of the culture match that of McFarland standard 0.5 (∼OD600 = 0.11) and diluted to final concentration of 5×10^5 cfu/ml in 20 ml TSB soft agar (1.2%) per plate. Two-fold serial dilutions (starting at 128 µg/ml) for each peptide was carried out in ultra-pure deionized water and 5 µl aliquots of each dilution were spotted on TSB plates. After the plates were incubated for 1 h at room temperature, they were placed at 37°C for overnight incubation. This experiment was performed in triplicate and the MIC was calculated as the lowest peptide concentration that formed a visible growth inhibition zone.

Question: CC(C)C[C@H](NC(=O)[C@H](Cc1c[nH]cn1)NC(=O)[C@H](CO)NC(=O)[C@@H](NC(=O)[C@H](CO)NC(=O)[C@H](CS)NC(=O)[C@H](CCC(=O)O)NC(=O)[C@H](Cc1ccccc1)NC(=O)[C@H](C)NC(=O)[C@H](CCC(N)=O)NC(=O)CNC(=O)[C@H](Cc1c[nH]c2ccccc12)NC(=O)[C@H](CC(N)=O)NC(=O)[C@@H](NC(=O)[C@H](CO)NC(=O)[C@H](CS)NC(=O)[C@H](CO)NC(=O)[C@H](Cc1c[nH]cn1)NC(=O)[C@H](CCCCN)NC(=O)CNC(=O)[C@H](CS)NC(=O)[C@@H](NC(=O)[C@@H](NC(=O)CNC(=O)[C@H](CC(N)=O)NC(=O)CNC(=O)[C@H](Cc1ccc(O)cc1)NC(=O)[C@H](Cc1ccc(O)cc1)NC(=O)[C@@H](N)CCCCN)C(C)C)[C@@H](C)O)C(C)C)C(C)C)C(=O)N[C@@H](C)C(=O)N[C@@H](CC(N)=O)C(=O)N[C@@H](Cc1ccccc1)C(=O)NCC(=O)N[C@@H](Cc1c[nH]cn1)C(=O)NCC(=O)N[C@@H](CCCCN)C(=O)N[C@@H](CS)C(=O)O [PLN-S23E] (H-KYYGNGVTCGKHSCSVNWGQAFECSVSHLANFGHGKC-OH; N-terminus and C-terminus assumed) was tested. Which “activity group by size of inhibition zone compared to wild-type Pln-423” value (Listeria innocua 33090 [1]) did it give?
Answer: H and L

Question: And the MIC (Listeria innocua 33090 [2]; synthetic peptide, 5 µl of two-fold serial dilutions spotted on TSB soft agar (1.2%) with 5×10^5 cfu/ml, 1 h room temperature, then 18 h at 37°C, lowest concentration with visible inhibition zone, triplicate)?
Answer: 1 µM (≈ 3.98 µg/mL)

Question: And the “MIC fold higher compared to Pln-WT” value (Listeria innocua 33090 [2]; synthetic peptides)?
Answer: 13 fold
